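Five compound concentrations were applied to cells in 96-well plates for 48 hours; endpoints were derived by simple linear interpolation of the resulting dose-response curve. Abbreviation: GI50, concentration required for 50% inhibition of growth. TGI denotes the concentration required for complete inhibition of growth.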
Assays:
Assay in all cases: NCI-60 cell line screen, 48 h
[1] = tested on: OVCAR-8 ovarian
[2] = tested on: SF-295 CNS
[3] = tested on: CCRF-CEM leukemia
[4] = tested on: MCF7 breast
[5] = tested on: MOLT-4 leukemia
[6] = tested on: A549 NSCLC
[7] = tested on: BT-549 breast
[8] = tested on: EKVX NSCLC
[9] = tested on: COLO 205 colon
[10] = tested on: RXF 393 renal
[11] = tested on: CAKI-1 renal
[12] = tested on: UO-31 renal
[13] = tested on: UACC-62 melanoma
[14] = tested on: NCI-H522 lung
[15] = tested on: TK-10 renal
[16] = tested on: SK-MEL-2 melanoma
[17] = tested on: DU-145 prostate
[18] = tested on: SF-268 CNS
[19] = tested on: OVCAR-5 ovarian
[20] = tested on: SNB-19 CNS
[21] = tested on: MALME-3M melanoma
[22] = tested on: HCC-2998 colon
[23] = tested on: ACHN renal
[24] = tested on: HS 578T breast
[25] = tested on: OVCAR-4 ovarian
[26] = tested on: A498 renal
[27] = tested on: SK-OV-3 ovarian
[28] = tested on: T-47D breast
[29] = tested on: PC-3 prostate
[30] = tested on: NCI-H460 lung
[31] = tested on: SW-620 colon
[32] = tested on: NCI-H23 lung
[33] = tested on: LOX IMVI melanoma
[34] = tested on: NCI-H226 lung
[35] = tested on: U251 CNS
[36] = tested on: SNB-75 CNS
[37] = tested on: MDA-MB-231 breast
[38] = tested on: HT29 colon
[39] = tested on: RPMI-8226 leukemia
[40] = tested on: HOP-92 NSCLC
[41] = tested on: KM12 colon
[42] = tested on: M14 melanoma
[43] = tested on: HL-60(TB) leukemia
[44] = tested on: SR leukemia
[45] = tested on: HOP-62 NSCLC
[46] = tested on: OVCAR-3 ovarian
[47] = tested on: K-562 leukemia
[48] = tested on: NCI/ADR-RES ovarian
[49] = tested on: IGROV1 ovarian
[50] = tested on: SN12C renal
[51] = tested on: HCT-15 colon
[52] = tested on: SK-MEL-5 melanoma
[53] = tested on: 786-0 renal
[54] = tested on: HCT-116 colon
[55] = tested on: SF-539 CNS

With `COc1ccc(C(O)c2cc3c(N)c(C(=O)Nc4ccccc4)sc3nc2C)cc1` (stereo not given) the GI50 [1] was 63.6 nM, the TGI [1] was greater than 100000 nM and the GI50 [2] was 35.2 nM. The TGI [2] was 12600 nM, the GI50 [3] was 38.3 nM and the TGI [3] was greater than 100000 nM. For the same molecule, the GI50 [4] was 34.5 nM, the TGI [4] was 19300 nM and the GI50 [5] was 50.8 nM. The TGI [5] was greater than 100000 nM, the GI50 [6] was 62.8 nM and the TGI [6] was greater than 100000 nM. It also gave a GI50 [7] of 186 nM, a TGI [7] of 36400 nM and a GI50 [8] of 61.7 nM. For the same molecule, the TGI [8] was greater than 100000 nM, the GI50 [9] was 219 nM and the TGI [9] was 1800 nM. For the same molecule, the GI50 [10] was 28.6 nM, the TGI [10] was 911 nM and the GI50 [11] was 41.6 nM. It also gave a TGI [11] of 20700 nM, a GI50 [12] of 70.6 nM and a TGI [12] of 49800 nM. It also gave a GI50 [13] of 39.7 nM, a TGI [13] of 19400 nM and a GI50 [14] of 34.7 nM. It also gave a TGI [14] of 2570 nM, a GI50 [15] of 4510 nM and a TGI [15] of 49800 nM. It also gave a GI50 [16] of 238 nM, a TGI [16] greater than 100000 nM and a GI50 [17] of 41.4 nM. For the same molecule, the TGI [17] was 50600 nM, the GI50 [18] was 174 nM and the TGI [18] was greater than 70000 nM. For the same molecule, the GI50 [19] was 71.4 nM, the TGI [19] was 25400 nM and the GI50 [20] was 44.3 nM. The TGI [20] was 20400 nM, the GI50 [21] was 51 nM and the TGI [21] was 35100 nM. It also gave a GI50 [22] of 102 nM, a TGI [22] of 3790 nM and a GI50 [23] of 68.3 nM. For the same molecule, the TGI [23] was 27500 nM, the GI50 [24] was 30.5 nM and the TGI [24] was 3010 nM. The GI50 [25] was 2030 nM, the TGI [25] was greater than 100000 nM and the GI50 [26] was 26.2 nM. The TGI [26] was 2790 nM, the GI50 [27] was 53.9 nM and the TGI [27] was 25400 nM. The GI50 [28] was 51.4 nM, the TGI [28] was greater than 100000 nM and the GI50 [29] was 140 nM. The TGI [29] was greater than 74300 nM, the GI50 [30] was 36.1 nM and the TGI [30] was 11100 nM. For the same molecule, the GI50 [31] was 39.1 nM, the TGI [31] was greater than 100000 nM and the GI50 [32] was 75.4 nM. For the same molecule, the TGI [32] was greater than 50100 nM, the GI50 [33] was 53.9 nM and the TGI [33] was greater than 100000 nM. It also gave a GI50 [34] of 57.9 nM, a TGI [34] of 1870 nM and a GI50 [35] of 42.5 nM. It also gave a TGI [35] of 29700 nM, a GI50 [36] of 26.7 nM and a TGI [36] of 21900 nM. It also gave a GI50 [37] of 72.8 nM, a TGI [37] of 9630 nM and a GI50 [38] of 33.3 nM. For the same molecule, the TGI [38] was 8600 nM, the GI50 [39] was 41.6 nM and the TGI [39] was greater than 100000 nM. The GI50 [40] was 54.6 nM, the TGI [40] was 12100 nM and the GI50 [41] was 40.3 nM. The TGI [41] was greater than 100000 nM, the GI50 [42] was 34.9 nM and the TGI [42] was greater than 100000 nM. For the same molecule, the GI50 [43] was 32.4 nM, the TGI [43] was 459 nM and the GI50 [44] was 33.3 nM. The TGI [44] was greater than 100000 nM, the GI50 [45] was 77.4 nM and the TGI [45] was 68600 nM. For the same molecule, the GI50 [46] was 32.1 nM, the TGI [46] was 1270 nM and the GI50 [47] was 38.2 nM. It also gave a TGI [47] greater than 100000 nM, a GI50 [48] of 38.1 nM and a TGI [48] of 2020 nM. The GI50 [49] was 94 nM, the TGI [49] was 22600 nM and the GI50 [50] was 62.8 nM. The TGI [50] was 29500 nM, the GI50 [51] was 40.3 nM and the TGI [51] was greater than 100000 nM. For the same molecule, the GI50 [52] was 35.9 nM, the TGI [52] was 591 nM and the GI50 [53] was 76.3 nM. It also gave a TGI [53] of 25300 nM, a GI50 [54] of 42.5 nM and a TGI [54] greater than 35400 nM. The GI50 [55] was 34.8 nM and the TGI [55] was 825 nM.

Reference: PubChem BioAssay (NCI)
